According to the NIST ThermoML archive (doi:10.1021/acs.jced.5b00209):
± gives the expanded uncertainty stated by the source.

Conditions: 101.33 kPa, Liquid; for viscosity: Capillary tube (Ostwald / Ubbelohde) method; for mass density: Pycnometric method

For `C[S+](C)[O-]` [dimethyl sulfoxide], the viscosity (298.15 K) was 2.01 ± 0.08 mPa·s, the mass density (298.15 K) was 1096.8 ± 0.5 kg/m3 and the viscosity (303.15 K) was 1.82 ± 0.07 mPa·s. For the same compound, the mass density (303.15 K) was 1091.4 ± 0.5 kg/m3, the viscosity (308.15 K) was 1.65 ± 0.07 mPa·s and the mass density (308.15 K) was 1086.1 ± 0.5 kg/m3. For the same compound, the viscosity (313.15 K) was 1.54 ± 0.06 mPa·s, the mass density (313.15 K) was 1081.2 ± 0.5 kg/m3 and the viscosity (318.15 K) was 1.37 ± 0.06 mPa·s. For the same compound, the mass density (318.15 K) was 1075.3 ± 0.6 kg/m3.
